Test results from patent US8575382B2, “Low molecular weight pharmacological activity modulators” (“Ivy Pharm” LLC, priority 2009, dated 2013).
Like-named read-outs stand apart in the source and are kept apart here.

Tests used:
[1] = tested on: mice with hyperglycemia caused by glucose; assay: Glucose loading test, blood sugar level; type: in vivo
Procedure: the glucose loading test (reduction in the sugar content in animals with hyperglycemia, caused by administration of glucose when fasting); Blood was obtained after 1 h by caudal vein puncture and the serum glucose level was determined by the ortho-toluidine method. Experiments to study the effect of the test substances on the blood glucose level were carried out on white mice weighing 17-18 g. The animals were deprived of food from the evening prior to the experiment. […] Immediately after injecting the glucose, the experimental animals were injected subcutaneously with a reference preparation (insulin in a dose of 0.3 units/kg). […] The blood glucose level was determined over a period of 4 hours with intervals of 1 hour.

[2] = tested on: white rats with experimental diabetes; assay: Alloxan diabetes model; type: in vivo; settings: for Cholesterol / Glucose / Total lipids / Triglycerides / β-lipoproteins: blood serum; for Body weight / Daily water consumption / Percent living: intragastrically once daily
Procedure: the alloxan diabetes model (reduction in the sugar content in the conditions of experimental chronic insulin insufficiency).
The alloxan diabetes model was used in another series of experiments. Alloxan diabetes was induced by a single subcutaneous injection of alloxan hydrate (Chemapol, Czech Republic) in a dose of 100 mg/kg in rats weighing 180-200 g which had fasted for 24 hours. The following groups of animals were studied: intact rats, untreated rats with diabetes, and animals with diabetes which were given thioctic acid daily for 1 month in a dose of 100 mg/kg, and thioctic acid in combination with the coordination compound in a dose of 10 mg/kg intragastrically once daily. Administration of the preparations commenced after 7 days, when the blood glucose level had roughly doubled as compared with the control. Each group contained 20 animals of both sexes. The general condition of the animals, the demand for food and water, the body weight, and the blood serum levels of glucose, total lipids, triglycerides, lipoproteins and cholesterol were recorded in the course of the experiment. […]

[3] = tested on: myocardium (30-minute LCA occlusion, 90-minute reperfusion)
Procedure: The experiments were performed on male Wistar rats weighing 200-300 g (RAMN Rappolovo Breeding Centre, St. Petersburg) and male C57B mice weighing 25-30 g (B&K, Sollentuna, Sweden). The animals were maintained in a 12/12-hour light regime and received standard feed and drinking water ad libitum. All the experiments were conducted in accordance with the “Handbook on the care and use of laboratory animals” (USA National Institute of Health publication No. 85-23) and “Handbook on the experimental (preclinical) study of new pharmacological substances”.
Initial anesthesia of rats was performed by intraperitoneal administration of etaminal sodium (Nembutal) in a single dose of 7 mg/100 g. The experiments were performed with artificial ventilation of the lungs AVL) via a tracheotomy (respiration rate—60/min, respiratory volume—3 ml/100 g of body weight). AVL was carried out with room air using a Vita-1 unit (PO Krasnogvardeyets, St. Petersburg). A breathing valve for small laboratory animals was used, allowing the dead space volume of the apparatus to be reduced and limiting accumulation of carbon dioxide in the flow system of the apparatus. Arterial pressure (AP) was measured during the experiment using a miniature pressure sensor (Baxter, USA) via a heparinized catheter inserted into the left common carotid artery. A median skin incision was made in the neck, with subsequent blunt separation of the tissues with forceps, for access to the trachea and carotid artery. An electrocardiogram (ECG) was recorded in the course of the experiment (Kardiotekhnika-EKG-8, ZAO Inkart, St. Petersburg) with standard leads, using subcutaneous needle electrodes 2 mm in diameter and 25 mm long. At the start of the experiment, the left femoral vein was catheterized for intravenous infusion of Nembutal with the object of maintaining anesthesia and also for the administration of test preparations and, at the end of the experiment, Evans blue.
A previously described method was used to model ischemia-reperfusion of the myocardium. The heart was accessed via a thoracotomy in the fourth intercostal on the left. An L-shaped skin incision was made first, then the large and small pectoral muscles were separated layer by layer with an electrocoagulator, after which the intercostal muscles were separated and the pleura was exposed. The pericardium was then opened by a blunt method and, using the medial edge of the auricula of the left atrium on the left, and the cone of the pulmonary artery on the right, for guidance the location of the common trunk of the LCA was determined, and a polypropylene ligature for this was placed with the aid of an atraumatic needle (6-O, Cardiopoint, CV-301). Removal of the heart from the wound was avoided since, apart from causing mechanical trauma to the heart, such a manipulation inevitably leads to serious disturbances to the hemodynamics.
An occluder was formed in order to create reversible ischemia of the myocardium: the ends of the ligature surrounding the coronary artery were led into the interior of a polyethylene tube 1 mm in diameter and 5-6 cm long (PE 40), after which occlusion of the left coronary artery (LCA) was achieved by moving the tube towards the heart, and reperfusion by moving it in the opposite direction. A clamp was applied to the tube with the object of maintaining occlusion for 30 minutes. The animals were located on a thermostatted operating table during the experiment; during this time, the body temperature of the animal was maintained in the range 37.5±0.5° C.
30-minute occlusion of the LCA with subsequent 90-minute reperfusion was used to create irreversible ischemic-reperfusion damage to the myocardium, which is a test for assessing cardioprotective effects.

**Q.** For `O=C(O)CCCCC1CCSS1` (stereo not shown) [Thioctic acid, thioctic acid], which Blood sugar level ([1]; 5.5 mg/kg intramuscularly, 1 hour) is on record?
**A.** Its Blood sugar level is 4.3 ± 0.2 mmol/L.

**Q.** And the Blood sugar level ([1]; 5.5 mg/kg intramuscularly, 2 hours)?
**A.** The Blood sugar level was 4.0 ± 0.2 mmol/L.

**Q.** What about the Blood sugar level ([1]; 5.5 mg/kg intramuscularly, 3 hours) of the same compound?
**A.** The Blood sugar level was 4.4 ± 0.3 mmol/L.

**Q.** And the Blood sugar level ([1]; 5.5 mg/kg intramuscularly, 4 hours)?
**A.** Its Blood sugar level is 4.1 ± 0.1 mmol/L.

**Q.** And the Blood sugar level ([1]; 11 mg/kg intramuscularly, 1 hour)?
**A.** Its Blood sugar level is 4.5 ± 0.2 mmol/L.

**Q.** What about the Blood sugar level ([1]; 11 mg/kg intramuscularly, 2 hours) of the same compound?
**A.** The Blood sugar level was 4.2 ± 0.2 mmol/L.

**Q.** And the Blood sugar level ([1]; 11 mg/kg intramuscularly, 3 hours)?
**A.** The Blood sugar level was 4.2 ± 0.3 mmol/L.

**Q.** And the Blood sugar level ([1]; 11 mg/kg intramuscularly, 4 hours)?
**A.** The Blood sugar level was 4.2 ± 0.1 mmol/L.

**Q.** And the Blood sugar level ([1]; 100 mg/kg intramuscularly, 1 hour)?
**A.** The Blood sugar level was 3.0 ± 0.3 mmol/L.

**Q.** What about the Blood sugar level ([1]; 100 mg/kg intramuscularly, 2 hours) of the same compound?
**A.** The Blood sugar level was 2.8 ± 0.1 mmol/L.

**Q.** And the Blood sugar level ([1]; 100 mg/kg intramuscularly, 3 hours)?
**A.** The Blood sugar level was 2.5 ± 0.1 mmol/L.

**Q.** What about the Blood sugar level ([1]; 100 mg/kg intramuscularly, 4 hours) of the same compound?
**A.** Its Blood sugar level is 2.4 ± 0.3 mmol/L.

**Q.** And the Blood sugar level ([1]; 200 mg/kg intramuscularly, 1 hour)?
**A.** The Blood sugar level was 2.7 ± 0.2 mmol/L.

**Q.** And the Blood sugar level ([1]; 200 mg/kg intramuscularly, 2 hours)?
**A.** The Blood sugar level was 2.6 ± 0.3 mmol/L.

**Q.** What about the Blood sugar level ([1]; 200 mg/kg intramuscularly, 3 hours) of the same compound?
**A.** The Blood sugar level was 2.3 ± 0.2 mmol/L.

**Q.** And the Blood sugar level ([1]; 200 mg/kg intramuscularly, 4 hours)?
**A.** Its Blood sugar level is 2.1 ± 0.2 mmol/L.

**Q.** And the “hypoglycemizing effect (in words)” value ([1]; doses of 5.5 and 11 mg/kg, without the coordination compound)?
**A.** Its value is “did not exhibit a hypoglycemizing effect”.

**Q.** And the Cholesterol ([2]; 14 days)?
**A.** The Cholesterol was 2.4 ± 0.2 mmol/L.

**Q.** And the Glucose ([2]; 14 days)?
**A.** Its Glucose is 5.2 ± 0.2 mmol/L.

**Q.** And the Total lipids ([2]; 14 days)?
**A.** The Total lipids was 10.4 ± 0.5 g/L.

**Q.** And the Triglycerides ([2]; 14 days)?
**A.** Its Triglycerides is 2.3 ± 0.2 mmol/L.

**Q.** And the β-lipoproteins ([2]; 14 days)?
**A.** The β-lipoproteins was 2.1 ± 0.2 g/L.

**Q.** What about the Body weight ([2]; 14 days) of the same compound?
**A.** The Body weight was 180 ± 10 g.

**Q.** And the Daily water consumption ([2]; 14 days)?
**A.** The Daily water consumption was 25 ± 5.

**Q.** And the Percent living ([2]; 14 days)?
**A.** Its Percent living is 100%.

**Q.** And the Cholesterol ([2]; 20 days)?
**A.** Its Cholesterol is 1.4 ± 0.2 mmol/L.

**Q.** What about the Glucose ([2]; 20 days) of the same compound?
**A.** The Glucose was 4.8 ± 0.1 mmol/L.

**Q.** What about the Total lipids ([2]; 20 days) of the same compound?
**A.** The Total lipids was 10.2 ± 0.3 g/L.

**Q.** What about the Triglycerides ([2]; 20 days) of the same compound?
**A.** Its Triglycerides is 1.5 ± 0.2 mmol/L.

**Q.** And the β-lipoproteins ([2]; 20 days)?
**A.** The β-lipoproteins was 2.1 ± 0.3 g/L.

**Q.** What about the Body weight ([2]; 20 days) of the same compound?
**A.** Its Body weight is 185 ± 10 g.

**Q.** What about the Daily water consumption ([2]; 20 days) of the same compound?
**A.** Its Daily water consumption is 22 ± 5.

**Q.** And the Percent living ([2]; 20 days)?
**A.** Its Percent living is 100%.

**Q.** And the Cholesterol ([2]; 30 days)?
**A.** The Cholesterol was 1.4 ± 0.1 mmol/L.

**Q.** What about the Glucose ([2]; 30 days) of the same compound?
**A.** The Glucose was 4.6 ± 0.2 mmol/L.

**Q.** What about the Total lipids ([2]; 30 days) of the same compound?
**A.** Its Total lipids is 9.5 ± 0.2 g/L.

**Q.** And the Triglycerides ([2]; 30 days)?
**A.** The Triglycerides was 1.4 ± 0.2 mmol/L.

**Q.** And the β-lipoproteins ([2]; 30 days)?
**A.** The β-lipoproteins was 2.1 ± 0.3 g/L.

**Q.** And the Body weight ([2]; 30 days)?
**A.** Its Body weight is 195 ± 10 g.

**Q.** And the Daily water consumption ([2]; 30 days)?
**A.** Its Daily water consumption is 20 ± 3.

**Q.** And the Percent living ([2]; 30 days)?
**A.** Its Percent living is 100%.

**Q.** What does the source list for `Nc1ncnc2c1ncn2[C@@H]1O[C@H](CO)[C@@H](O)[C@H]1O` [adenosine]?
**A.** disturbances of the heart rhythm or stopping of the heart ([3]; rat, in vivo): No disturbances of the heart rhythm or stopping of the heart; size of the infarct zone, % of the size of the anatomical risk zone ([3]; rats, adenosine 0.1 μmol/kg i.v. infusion 30 minutes before coronary occlusion (group 1)): 64.7±3.47%; size of the infarct zone, % of the size of the anatomical risk zone ([3]; rats, adenosine 0.25 μmol/kg i.v. 30 minutes before occlusion (group 2)): 63.1±4.31%; size of the infarct zone, % of the size of the anatomical risk zone ([3]; rats, adenosine 0.5 μmol/kg i.v. 30 minutes before occlusion (group 3)): 62.7±4.11%; size of the infarct zone, % of the size of the anatomical risk zone ([3]; rats, adenosine 1.0 μmol/kg i.v. 30 minutes before occlusion (group 4)): 65.1±4.84%; size of the infarct zone, % of the size of the anatomical risk zone ([3]; rats, adenosine 2.5 μmol/kg i.v. 30 minutes before occlusion (group 5)): 60.9±5.10%; size of the infarct zone, % of the size of the anatomical risk zone ([3]; rats, adenosine 5.0 μmol/kg i.v. 30 minutes before occlusion (group 6)): 35.9±3.59%; size of the infarct zone, % of the size of the anatomical risk zone ([3]; rats, adenosine 10.0 μmol/kg i.v. 30 minutes before occlusion (group 7)): 32.7±3.21%; size of the infarct zone, % of the size of the anatomical risk zone ([3]; rats, adenosine 25.0 μmol/kg i.v. 30 minutes before occlusion (group 8)): 28.2±3.43%; size of the infarct zone, % of the size of the anatomical risk zone ([3]; rats, adenosine 50.0 μmol/kg i.v. 30 minutes before occlusion (group 9)): 26.5±2.87%; reduction of the size of the infarct zone compared with the control, factor ([3]; rats, adenosine groups 6-9 (5.0-50.0 μmol/kg), control 63.8±3.32%): 1.5-2.5
